Experiments:
[1] = system: corn; assay: Test C preemergence/postemergence greenhouse plant response rating 0 to 100; format: in vivo, Zea mays; conditions: for Plant response rating, Corn: 62 g/ha, 0 to 100 scale
Summary of the method: (§1)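 Compounds in non-phytotoxic solvent applied preemergence to sandy loam one day after planting, postemergence at the 1–4 leaf stage, or to ~2.5 cm floodwater over silt loam.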

[2] = system: bedstraw; assay: as above; format: in vivo, Galium aparine; conditions: for Plant response rating, Bedstraw: 62 g/ha, 0 to 100 scale
Summary of the method: as §1

[3] = system: downy brome; assay: as above; format: in vivo, Bromus tectorum; conditions: for Plant response rating Downy Brome: 62 g/ha, 0 to 100 scale
Summary of the method: as §1

[4] = system: barnyardgrass; assay: Test B preemergence/postemergence greenhouse plant response rating 0 to 10; format: in vivo, Echinochloa crus-galli; conditions: 0 to 10 scale
Summary of the method: (§2)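 Both application timings were run together: seeds got compound preemergence, and established seedlings (two to eighteen cm) got it postemergence. Non-phytotoxic solvent carried the chemical. Ratings are visual, versus controls, at twelve to sixteen days.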

[5] = system: wild oat; assay: Test C preemergence/postemergence greenhouse plant response rating 0 to 100; format: in vivo, Avena fatua
Summary of the method: as §1

[6] = system: wild buckwheat; assay: Test B preemergence/postemergence greenhouse plant response rating 0 to 10; format: in vivo, Polygonum convolvulus; conditions: 0 to 10 scale
Summary of the method: as §2

[7] = system: crabgrass; assay: Test C preemergence/postemergence greenhouse plant response rating 0 to 100; format: in vivo, Digitaria sanguinalis; conditions: for Plant response rating, Crabgrass: 62 g/ha, 0 to 100 scale
Summary of the method: as §1

[8] = system: rape; assay: Test B preemergence/postemergence greenhouse plant response rating 0 to 10; format: in vivo, Brassica napus; conditions: 0 to 10 scale
Summary of the method: as §2

[9] = system: ryegrass; assay: Test C preemergence/postemergence greenhouse plant response rating 0 to 100; format: in vivo, Lolium multiflorum; conditions: for Plant response rating Ryegrass: 62 g/ha, 0 to 100 scale
Summary of the method: as §1

[10] = system: chickweed; assay: Test B preemergence/postemergence greenhouse plant response rating 0 to 10; format: in vivo, Stellaria media; conditions: 0 to 10 scale
Summary of the method: as §2

[11] = system: umbrella sedge; assay: Test C flood test plant response rating 0 to 100; format: in vivo, Cyperus difformis
Summary of the method: as §1

[12] = system: sugar beet; assay: Test C preemergence/postemergence greenhouse plant response rating 0 to 100; format: in vivo, Beta vulgaris
Summary of the method: as §1

[13] = POSTEMERGENCE, 62 g/ha, 0 to 100 scale

CC(C)Oc1cc(-c2nn3c(c2Br)CCCC3)c(F)cc1Cl [Compound 38]
100: Plant response rating, Sugar beet [12, 13] | Plant response rating (0 to 100), Sugar beet ([12]; Rate 16 g/ha, POSTEMERGENCE)
6: Plant response rating, Barnyardgrass ([4]; POSTEMERGENCE, Rate 50 g/ha)
10: Plant response rating (0 to 100), Corn ([1]; POSTEMERGENCE, Rate 1 g/ha) | Plant response rating (0 to 100), Downy Brome ([3]; POSTEMERGENCE, Rate 1 g/ha) | Plant response rating (0 to 100), Wild oat ([5]; POSTEMERGENCE, Rate 4 g/ha) | Plant response rating, Wild buckwheat ([6]; POSTEMERGENCE, Rate 50 g/ha) | Plant response rating, Wild buckwheat ([6]; Rate 200 g/ha, POSTEMERGENCE) | Plant response rating, Wild buckwheat ([6]; Rate 200 g/ha, PREEMERGENCE) | Plant response rating (0 to 100), Crabgrass ([7]; POSTEMERGENCE, Rate 1 g/ha) | Plant response rating (0 to 100), Crabgrass ([7]; Rate 16 g/ha, PREEMERGENCE) | Plant response rating, Rape ([8]; Rate 200 g/ha, POSTEMERGENCE) | Plant response rating (0 to 100), Ryegrass ([9]; POSTEMERGENCE, Rate 4 g/ha) | Plant response rating, Chickweed ([10]; POSTEMERGENCE, Rate 200 g/ha)
30: Plant response rating (0 to 100), Downy Brome ([3]; Rate 16 g/ha, POSTEMERGENCE) | Plant response rating (0 to 100), Wild oat ([5]; Rate 16 g/ha, POSTEMERGENCE) | Plant response rating, Crabgrass ([7]; PREEMERGENCE) | Plant response rating (0 to 100), Crabgrass ([7]; Rate 16 g/ha, POSTEMERGENCE) | Plant response rating (0 to 100), Ryegrass ([9]; Rate 16 g/ha, POSTEMERGENCE) | Plant response rating (0 to 100), Sugar beet ([12]; Rate 16 g/ha, PREEMERGENCE)
70: Plant response rating (0 to 100), Sugar beet ([12]; POSTEMERGENCE, Rate 4 g/ha)
1: Plant response rating, Barnyardgrass ([4]; Rate 200 g/ha, PREEMERGENCE)
20: Plant response rating (0 to 100), Corn ([1]; Rate 4 g/ha, POSTEMERGENCE) | Plant response rating (0 to 100), Bedstraw ([2]; POSTEMERGENCE, Rate 1 g/ha) | Plant response rating (0 to 100), Bedstraw ([2]; Rate 16 g/ha, PREEMERGENCE) | Plant response rating (0 to 100), Downy Brome ([3]; POSTEMERGENCE, Rate 4 g/ha) | Plant response rating (0 to 100), Crabgrass ([7]; POSTEMERGENCE, Rate 4 g/ha) | Plant response rating (0 to 100), Umbrella sedge ([11]; Rate 16 g/ha, under POSTEMERGENCE head (flood test species)) | Plant response rating (0 to 100), Sugar beet ([12]; POSTEMERGENCE, Rate 1 g/ha)
0: Plant response rating, Corn ([1]; PREEMERGENCE) | Plant response rating (0 to 100), Corn ([1]; PREEMERGENCE, Rate 1 g/ha) | Plant response rating (0 to 100), Corn ([1]; PREEMERGENCE, Rate 4 g/ha) | Plant response rating (0 to 100), Corn ([1]; Rate 16 g/ha, PREEMERGENCE) | Plant response rating (0 to 100), Bedstraw ([2]; PREEMERGENCE, Rate 1 g/ha) | Plant response rating (0 to 100), Bedstraw ([2]; PREEMERGENCE, Rate 4 g/ha) | Plant response rating Downy Brome ([3]; PREEMERGENCE) | Plant response rating (0 to 100), Downy Brome ([3]; PREEMERGENCE, Rate 1 g/ha) | Plant response rating (0 to 100), Downy Brome ([3]; PREEMERGENCE, Rate 4 g/ha) | Plant response rating (0 to 100), Downy Brome ([3]; Rate 16 g/ha, PREEMERGENCE) | Plant response rating, Barnyardgrass ([4]; PREEMERGENCE, Rate 50 g/ha) | Plant response rating (0 to 100), Wild oat ([5]; POSTEMERGENCE, Rate 1 g/ha) | Plant response rating (0 to 100), Wild oat ([5]; PREEMERGENCE, Rate 1 g/ha) | Plant response rating (0 to 100), Wild oat ([5]; PREEMERGENCE, Rate 4 g/ha) | Plant response rating (0 to 100), Wild oat ([5]; Rate 16 g/ha, PREEMERGENCE) | Plant response rating (0 to 100), Crabgrass ([7]; PREEMERGENCE, Rate 1 g/ha) | Plant response rating (0 to 100), Crabgrass ([7]; PREEMERGENCE, Rate 4 g/ha) | Plant response rating (0 to 100), Ryegrass ([9]; POSTEMERGENCE, Rate 1 g/ha) | Plant response rating Ryegrass ([9]; PREEMERGENCE) | Plant response rating (0 to 100), Ryegrass ([9]; PREEMERGENCE, Rate 1 g/ha) | Plant response rating (0 to 100), Ryegrass ([9]; PREEMERGENCE, Rate 4 g/ha) | Plant response rating (0 to 100), Ryegrass ([9]; Rate 16 g/ha, PREEMERGENCE) | Plant response rating, Chickweed ([10]; PREEMERGENCE, Rate 50 g/ha) | Plant response rating, Chickweed ([10]; Rate 200 g/ha, PREEMERGENCE) | Plant response rating (0 to 100), Umbrella sedge ([11]; POSTEMERGENCE section, flood test, Rate 1 g/ha) | Plant response rating (0 to 100), Umbrella sedge ([11]; POSTEMERGENCE section, flood test, Rate 4 g/ha) | Plant response rating (0 to 100), Sugar beet ([12]; PREEMERGENCE, Rate 1 g/ha) | Plant response rating (0 to 100), Sugar beet ([12]; PREEMERGENCE, Rate 4 g/ha)
50: Plant response rating, Corn ([1]; POSTEMERGENCE) | Plant response rating, Bedstraw ([2]; PREEMERGENCE) | Plant response rating (0 to 100), Bedstraw ([2]; Rate 4 g/ha, POSTEMERGENCE) | Plant response rating (0 to 100), Bedstraw ([2]; Rate 16 g/ha, POSTEMERGENCE) | Plant response rating, Wild oat [5, 13] | Plant response rating Ryegrass ([9]; POSTEMERGENCE) | Plant response rating Umbrella sedge ([11]; flood test species listed under POSTEMERGENCE, 62 g/ha, 0 to 100 scale)
90: Plant response rating, Bedstraw ([2]; POSTEMERGENCE)
9: Plant response rating, Chickweed ([10]; POSTEMERGENCE, Rate 50 g/ha)
40: Plant response rating (0 to 100), Corn ([1]; Rate 16 g/ha, POSTEMERGENCE) | Plant response rating Downy Brome ([3]; POSTEMERGENCE) | Plant response rating, Crabgrass ([7]; POSTEMERGENCE)
8: Plant response rating, Barnyardgrass ([4]; POSTEMERGENCE, Rate 200 g/ha) | Plant response rating, Wild buckwheat ([6]; PREEMERGENCE, Rate 50 g/ha) | Plant response rating, Rape ([8]; POSTEMERGENCE, Rate 50 g/ha) | Plant response rating, Rape ([8]; PREEMERGENCE, Rate 50 g/ha) | Plant response rating, Rape ([8]; Rate 200 g/ha, PREEMERGENCE)

— US6358885B1, “Substituted phenylheterocyclic herbicides” (Mississippi State University, priority 1992, dated 2002)
